In patent US20230181905A1, “Systems, Devices, and Methods for Enhancing the Neuroprotective Effects of Non-Invasive Gamma Stimulation with Pharmacological Agents” (Massachusetts Institute of Technology, priority 2021, published 2023):

Key:
IBA1+ microglia = IBA1+ microglia density, area and volume by immunohistochemistry; assay type: in vivo, mouse
Experimental: Experiments were performed to reduce microglia from 10-month-old 5×FAD mice, transgenic mice that overexpress human APP and PSEN1 genes harboring 5 AD-associated mutations, prior to GENUS treatment. […] Following 20 days of administration of Plx3397 chow, untreated- and Plx3397-treated 5×FAD mice (which continued Plx3397 administration) were subjected to 30 days of daily GENUS (FIG. 1A). Following completion of these treatments, microglial density in the visual cortex was compared between 1) untreated (No Stim), 2) Plx3397 treated, 3) GENUS treated and 4) Plx3397+GENUS treated 5×FAD mice (FIG. 1B).
Whether the neuroprotective effect is broader and can be replicated in other mouse models of neurodegeneration was evaluated. The CK-p25 mice, transgenic mice that overexpress CDK5 activator p25 in excitatory neurons, were subjected to these treatments. CK-p25 mice, which was raised in doxycycline containing food, was given either normal rodent chow (containing no doxycycline) or Plx3397 chow, and the mice simultaneously underwent no sensory stimulation or GENUS (FIG. 7A). After 42 days of treatment, neuroprotective factors were evaluated. Plx3397, GENUS and Plx3397+GENUS treatments reduced microglia in the visual cortex in CK-p25 mice (ANOVA F (3,35)=40.93, P<0.0001) (FIGS. 7B-7D), consistent with the results observed in 5×FAD mice and recent findings.
(§1) Microglia: Iba1 immunoreactive cells were considered microglia. Using an LSM 710 or LSM 880 with a 10× (for Iba1+ cell counts) or 40× (for morphological analysis) objective z stacks of the entire slice thickness […] with […] step size were acquired. Imaris was used for 3D rendering of images to quantify the total volume of microglia.
To study how CSF1R-sensitive microglia impact neural activity in the context of AD, an amyloidosis mouse model, the 5×FAD mice—which is a most commonly used mouse model for AD, was subject to a diet containing CSF1R inhibitor Plx3397 for 50 days (FIG. 21A). The CSF1R inhibitor Plx3397 (600 ppm) was employed, which was previously shown to effectively reduce microglia in vivo. Control mice were age-matched 5×FAD litters that received a regular diet. Electrophysiological recordings were performed using linear probes. Post-recording, the recording site in the visual cortex was verified by histology (FIG. 21), and microglia reduction was evaluated by assessing IBA1+ cell numbers.
How does regulating gamma oscillations affect synaptic and neural circuit function in Plx3397 treated 5×FAD mice? Specifically, it was asked what gene expression patterns are after the Plx3397 treatment and how gamma entrainment impacts such a signature. To address these questions, an unbiased RNA sequencing approach was utilized. 5×FAD mice were treated, via oral delivery in mouse chow, with the Plx3397. Following 20 days of administration of Plx3397 chow, untreated- and Plx3397-treated 5×FAD mice (which continued Plx3397 administration) were subjected to 30 days of daily GENUS (FIG. 24A). Following completion of the treatments, microglial density was quantified between 1) untreated (control), 2) Plx3397, 3) GENUS and 4) Plx3397+GENUS treated 5×FAD mice (FIGS. 24A-24D). […] Also observed was a reduction in IBA1 signal in the GENUS group (84.0±6.42 & 9.17±0.85) (FIGS. 24C-24D), which is consistent with previous observation in CK-p25 mice. After the treatments, the visual cortex was dissected, and single nucleus RNA-sequencing was performed.
as §1, with “of microglia. MAC2+ cells were counted manually using Image J.” for “of microglia.”

aggrecan = assay: Aggrecan immunohistochemistry around PV interneurons; assay type: in vivo, mouse; settings: 5×FAD mice, visual cortex; Plx3397 50 days
Description: These observations led to examination of the effect of Plx3397 administration on neuronal integrity. […] Indeed, it was observed that Plx3397 administration increased WFA+(Wisteria floribunda agglutinin, a PNN marker) PNN signals (au, 289400000±9384029 versus 213000000±16633300 in controls) (FIG. 22A, 22F), while aggrecan (a component in PNN) signals were […] specifically around PV interneurons in Plx3397 administered 5×FAD mice (12.34±0.4791 versus 7.837±0.3549 in controls) (FIG. 22A, 22G).

[1] = 5×FAD mice, visual cortex, Plx3397 chow 50 days, GENUS last 30 days

With FC(F)(F)c1ccc(CNc2ccc(Cc3c[nH]c4ncc(Cl)cc34)cn2)cn1 [Plx3397, Pexidartinib] the “IBA1+ positive microglia” value (IBA1+ microglia; 5×FAD mice, CA1 region of the hippocampus) was “significant reduction”, the “IBA1+ cells” value (IBA1+ microglia; 5×FAD mice, hippocampus, chronic Plx3397 vs control) was “reduced” and the “IBA1+ positive microglia” value (IBA1+ microglia; 5×FAD mice, visual cortex, Plx3397 chow 600 ppm 20 days, then 30 days continued with or without daily GENUS, vs untreated) was “significant reduction”. For the same molecule, the “% area covered by IBA1” value (IBA1+ microglia; [1]) was 7.27±0.45%, the “IBA1+ microglia number” value (IBA1+ microglia; [1]) was 47.18±5.44 % no treatment control and the “IBA1+ cells” value (IBA1+ microglia; 5×FAD mice, visual cortex, Plx3397 diet 600 ppm for 50 days) was 12±1.91 cells. The volume of microglia (IBA1+ microglia; CK-p25 mice, visual cortex, 42 days) was “lower volume”, the microglia (IBA1+ microglia; CK-p25 mice, visual cortex, 42 days of treatment) was “reduced” and the “IBA1+ microglial cells” value (IBA1+ microglia; CK-p25 mice, visual cortex, chronic treatment 6 weeks) was 44.19±2.86 % no treatment control. For the same molecule, the “aggrecan signals around PV interneurons” value (aggrecan) was 12.34±0.4791.
